Tests used:
Ctenocephalides felis [1] = assay: In vitro contact test with fleas; settings: read-out: insecticidal activity; for pest or weed control at 0.2 µg/cm2, 0.2 µg/cm2: dose 0.2 μg/cm^2, dead or moribund fleas after 48 h; for pest or weed control at 1 µg/cm2, 1 µg/cm2: dose 1 μg/cm^2, dead or moribund fleas after 48 h; for pest or weed control at 0.04 µg/cm2, 0.04 µg/cm2: dose 0.04 μg/cm^2, dead or moribund fleas after 48 h
Outline: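 Adult male and female cat fleas (5-10 per tube) placed in glass tubes coated with compound from acetone solution (900 ppm gives 5 μg/cm^2), kept at room temperature and ambient humidity. After 48 h, motionless or uncoordinated fleas scored dead or moribund; activity expressed as % dead or moribund.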

Amblyomma americanum = assay: In vitro contact test with hard ticks (Amblyomma americanum nymphs); settings: read-out: acaricidal activity; for pest or weed control at 0.2 µg/cm2, 0.2 µg/cm2: dose 0.2 μg/cm^2, 48 h; for pest or weed control at 1 µg/cm2, 1 µg/cm2: dose 1 μg/cm^2, 48 h
Outline: (§1)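 Adult R. sanguineus, I. ricinus, D. variabilis or A. americanum nymphs exposed in glass vials coated with compound from acetone (900 ppm gives 5 μg/cm^2). Held 48 h at room temperature (R. sanguineus) or 21° C., 85% rel. hum.; then heated at 45-50° C. ≤5 min, motionless or uncoordinated ticks scored dead/moribund.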

Dermacentor variabilis = assay: In vitro contact test with adult hard ticks (Dermacentor variabilis); settings: read-out: acaricidal activity; for pest or weed control at 0.04 µg/cm2, 0.04 µg/cm2: dose 0.04 μg/cm^2, 48 h; for pest or weed control at 0.2 µg/cm2, 0.2 µg/cm2: dose 0.2 μg/cm^2, 48 h; for pest or weed control at 1 µg/cm2, 1 µg/cm2: dose 1 μg/cm^2, 48 h
Outline: as §1

Ixodes ricinus = assay: In vitro contact test with adult hard ticks (Ixodes ricinus); settings: read-out: acaricidal activity; for pest or weed control at 0.2 µg/cm2, 0.2 µg/cm2: dose 0.2 μg/cm^2, 48 h; for pest or weed control at 1 µg/cm2, 1 µg/cm2: dose 1 μg/cm^2, 48 h; for pest or weed control at 5 µg/cm2, 5 µg/cm2: dose 5 μg/cm^2, 48 h
Outline: as §1

Rhipicephalus sanguineus = assay: In vitro contact test with adult hard ticks (Rhipicephalus sanguineus); settings: read-out: acaricidal activity; for pest or weed control at 0.2 µg/cm2, 0.2 µg/cm2: dose 0.2 μg/cm^2, 48 h; for pest or weed control at 1 µg/cm2, 1 µg/cm2: dose 1 μg/cm^2, 48 h; for pest or weed control at 0.04 µg/cm2, 0.04 µg/cm2: dose 0.04 μg/cm^2, 48 h
Outline: as §1

[2] = system: Rhipicephalus (Boophilus) microplus; assay: In vitro injection test with Rhipicephalus (Boophilus) microplus (BOOPMI Inj); settings: 168 h, laid fertile eggs after 7 days, read-out: acaricidal activity; for pest or weed control at 32 ng: dose 0.032 μg/animal injected; for pest or weed control at 0.00016 mg: dose 0.16 μg/animal injected; for pest or weed control at 0.0008 mg: dose 0.8 μg/animal injected; for pest or weed control at 6.4 ng: dose 0.0064 μg/animal injected
Outline: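 Test substance in DMSO; 1 μl injected into abdomen of each of 5 engorged adult female ticks, then held at 28° C., 85% rel. hum. Activity scored after 7 days from laying of fertile eggs: 100% = no eggs or all infertile, 0% = all eggs fertile.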

Ctenocephalides felis [3] = assay: Ctenocephalides felis in-vitro feeding test with fleas (CTECFE oral); settings: 48 hours, read-out: insecticidal feeding activity; for pest or weed control at 0.16 ppm: dose 0.16 ppm in citrated cattle blood; for pest or weed control at 0.8 ppm: dose 0.8 ppm in citrated cattle blood; for pest or weed control at 4 ppm: dose 4 ppm in citrated cattle blood; for pest or weed control at 0.032 ppm: dose 0.032 ppm in citrated cattle blood
Outline: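 About 20 unfed adult cat fleas fed through parafilm on citrated cattle blood containing test substance (DMSO solution diluted in blood), held at about 37° C. Kill rate scored after 48 hours, 100% meaning all fleas dead.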

Spodoptera litura = assay: Insecticidal testing against common cutworm; assay type: in vivo; settings: foliar, 144 h, concentration 100 ppm, cabbage leaf dip, second-stage larvae, after 6 days, read-out: pesticidal rate
From the text: Insecticidal Testing Against Common Cutworm (Spodoptera litura)

Plutella xylostella = assay: Insecticidal testing against diamondback moth; assay type: in vivo; settings: foliar, 144 h, concentration 100 ppm, cabbage leaf dip, third-stage larvae, after 6 days, read-out: pesticidal rate
From the text: Insecticidal Testing Against Diamondback Moth (Plutella xylostella)

Laodelphax striatellus = assay: Insecticidal testing against small brown planthopper; assay type: in vivo; settings: 144 h, concentration 100 ppm, sprayed rice seedlings, after 6 days, read-out: pesticidal rate
Outline: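 Acetone solution of compound at a set concentration sprayed onto rice seedlings, air-dried, then exposed to 10 planthoppers (one group). Held at 25° C; survival rate recorded after 6 days.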

Structure (SMILES)	pest or weed control at 0.2 µg/cm2, 0.2 µg/cm2 (Ctenocephalides felis [1])	pest or weed control at 1 µg/cm2, 1 µg/cm2 (Ctenocephalides felis [1])	pest or weed control at 0.2 µg/cm2, 0.2 µg/cm2 (Amblyomma americanum)	pest or weed control at 1 µg/cm2, 1 µg/cm2 (Amblyomma americanum)	pest or weed control at 0.04 µg/cm2, 0.04 µg/cm2 (Dermacentor variabilis)	pest or weed control at 0.2 µg/cm2, 0.2 µg/cm2 (Dermacentor variabilis)	pest or weed control at 1 µg/cm2, 1 µg/cm2 (Dermacentor variabilis)	pest or weed control at 1 µg/cm2, 1 µg/cm2 (Ixodes ricinus)	pest or weed control at 5 µg/cm2, 5 µg/cm2 (Ixodes ricinus)	pest or weed control at 0.2 µg/cm2, 0.2 µg/cm2 (Rhipicephalus sanguineus)	pest or weed control at 1 µg/cm2, 1 µg/cm2 (Rhipicephalus sanguineus)	pest or weed control at 32 ng [2]	pest or weed control at 0.00016 mg [2]	pest or weed control at 0.0008 mg [2]	pest or weed control at 0.16 ppm (Ctenocephalides felis [3])	pest or weed control at 0.8 ppm (Ctenocephalides felis [3])	pest or weed control at 4 ppm (Ctenocephalides felis [3])	pest or weed control at 100 ppm (Spodoptera litura)	pest or weed control at 100 ppm (Plutella xylostella)	pest or weed control at 100 ppm (Laodelphax striatellus)	also measured
O=C(Nc1cccc(C(=O)Nc2c(I)cc(C(F)(C(F)(F)F)C(F)(F)C(F)(F)F)cc2C(F)(F)F)c1F)c1ccc(F)c(F)c1 (stereo not drawn) [Compound 78]	95%	95%	90%	90%	90%	90%	90%	90%	90%	90%	90%	100%	100%	100%	95%	95%	95%	≥ 70%	≥ 70%	≥ 70%	pest or weed control at 0.2 µg/cm2, 0.2 µg/cm2 (Ixodes ricinus): 90%
N#Cc1ccc(C(=O)Nc2cccc(C(=O)Nc3c(I)cc(C(F)(C(F)(F)F)C(F)(F)F)cc3C(F)(F)F)c2F)cn1 [Compound 79]	95%	95%	90%	90%	–	–	90%	90%	90%	90%	90%	100%	100%	100%	95%	95%	95%	≥ 70%	≥ 70%	≥ 70%	–
CN(C(=O)c1ccc(F)nc1)c1cccc(C(=O)Nc2c(I)cc(C(F)(C(F)(F)F)C(F)(F)C(F)(F)F)cc2C(F)(F)F)c1F (stereo not drawn) [Compound 81]	95%	95%	90%	90%	90%	90%	90%	–	90%	90%	90%	100%	100%	100%	95%	95%	95%	≥ 70%	≥ 70%	≥ 70%	pest or weed control at 0.04 µg/cm2, 0.04 µg/cm2 (Ctenocephalides felis [1]): 95%; pest or weed control at 6.4 ng [2]: 100%
O=C(Nc1cccc(C(=O)Nc2c(I)cc(C(F)(C(F)(F)F)C(F)(F)C(F)(F)F)cc2C(F)(F)F)c1F)c1ccc(F)nc1 (stereo not drawn) [Compound 82]	95%	95%	90%	90%	90%	90%	90%	–	90%	90%	90%	100%	100%	100%	95%	95%	95%	≥ 70%	≥ 70%	≥ 70%	pest or weed control at 0.04 µg/cm2, 0.04 µg/cm2 (Ctenocephalides felis [1]): 95%; pest or weed control at 0.04 µg/cm2, 0.04 µg/cm2 (Rhipicephalus sanguineus): 90%; pest or weed control at 6.4 ng [2]: 100%
O=C(Nc1cccc(C(=O)Nc2c(I)cc(C(F)(C(F)(F)F)C(F)(F)F)cc2C(F)(F)F)c1F)c1ccc(C(F)F)nc1 [Compound 85]	95%	95%	90%	90%	90%	90%	90%	90%	90%	90%	90%	100%	100%	100%	95%	95%	95%	≥ 70%	≥ 70%	≥ 70%	pest or weed control at 0.04 µg/cm2, 0.04 µg/cm2 (Ctenocephalides felis [1]): 95%; pest or weed control at 0.2 µg/cm2, 0.2 µg/cm2 (Ixodes ricinus): 90%; pest or weed control at 0.0064 ppm (Ctenocephalides felis [3]; dose 0.0064 ppm in citrated cattle blood): 95%; pest or weed control at 0.032 ppm (Ctenocephalides felis [3]): 95%
O=C(Nc1cccc(C(=O)Nc2c(I)cc(C(F)(C(F)(F)F)C(F)(F)F)cc2C(F)(F)F)c1F)c1ccc(F)c(F)c1 [Compound 86]	95%	95%	90%	90%	90%	90%	90%	90%	90%	90%	90%	100%	100%	100%	95%	95%	95%	≥ 70%	≥ 70%	≥ 70%	pest or weed control at 0.04 µg/cm2, 0.04 µg/cm2 (Ctenocephalides felis [1]): 95%; pest or weed control at 0.04 µg/cm2, 0.04 µg/cm2 (Amblyomma americanum; dose 0.04 μg/cm^2, 48 h): 90%; pest or weed control at 0.2 µg/cm2, 0.2 µg/cm2 (Ixodes ricinus): 90%; pest or weed control at 0.04 µg/cm2, 0.04 µg/cm2 (Rhipicephalus sanguineus): 90%; pest or weed control at 0.032 ppm (Ctenocephalides felis [3]): 95%
CN(C(=O)c1ccc(F)cc1)c1cccc(C(=O)Nc2c(Br)cc(C(F)(C(F)(F)F)C(F)(F)F)cc2OC(F)F)c1F [Compound 89]	95%	95%	–	90%	–	90%	90%	90%	90%	90%	90%	100%	100%	100%	95%	95%	95%	≥ 70%	≥ 70%	≥ 70%	pest or weed control at 0.04 µg/cm2, 0.04 µg/cm2 (Ctenocephalides felis [1]): 95%; pest or weed control at 0.2 µg/cm2, 0.2 µg/cm2 (Ixodes ricinus): 90%; pest or weed control at 6.4 ng [2]: 100%; pest or weed control at 0.032 ppm (Ctenocephalides felis [3]): 95%
